Laboratory results taken from BindingDB's records for doi:10.1021/jm00103a005 (National Institute On Drug Abuse, 1993).
Counter-ions that a name gives are not always drawn.

Columns and labels:
[1] = biological target: Sigma non-opioid intracellular receptor 1 (Cavia porcellus) (UniProt Q60492); assay: Inhibition of specific binding of [3H]DTG to sigma binding site in Guinea pig brain membranes
[2] = biological target: Sigma non-opioid intracellular receptor 1 (Cavia porcellus) (UniProt Q60492); assay: Inhibition of specific binding of [3H]NANM of sigma binding site in Guinea pig brain membranes
[3] = biological target: Sigma non-opioid intracellular receptor 1 (Cavia porcellus) (UniProt Q60492); assay: Inhibition of specific binding of [125I]-PIPAG to sigma binding site in Guinea pig brain membranes
[4] = Inhibition of specific binding of [3H]DTG to sigma receptor in Guinea pig brain membranes
[5] = Inhibition of specific binding of [3H]3-PPP to sigma receptor in Guinea pig brain membranes
[6] = Inhibition of specific binding of [3H]3-PPP to sigma binding site in Guinea pig brain membranes

Sequence of Sigma non-opioid intracellular receptor 1 (Cavia porcellus) (Q60492 whole entry, looked up): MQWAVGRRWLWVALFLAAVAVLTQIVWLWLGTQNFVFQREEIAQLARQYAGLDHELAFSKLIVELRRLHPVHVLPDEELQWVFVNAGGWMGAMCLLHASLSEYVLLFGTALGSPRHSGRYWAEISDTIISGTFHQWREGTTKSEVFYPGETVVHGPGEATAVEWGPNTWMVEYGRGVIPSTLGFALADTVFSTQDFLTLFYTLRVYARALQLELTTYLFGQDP

| SMILES | IC50 [1] | IC50 [2] | IC50 [3] | IC50 [4] | IC50 [5] | IC50 [6] |
| --- | --- | --- | --- | --- | --- | --- |
| CN1CCc2cccc3c2[C@H]1Cc1ccc(O)c(O)c1-3 [APOKYN] | > 10000 nM | > 31000 nM | > 10000 nM |  |  |  |
| C=CCN1CC[C@]23c4c5ccc(O)c4O[C@H]2[C@@H](O)C=C[C@H]3[C@H]1C5 [NALORPHINE HYDROCHLORIDE] | 4000 nM | 1800 nM | 5000 nM | 625 nM | 93 nM | 2850 nM |
